Results reported in patent publication US11564928B1, “Cannabinoid receptor type 2 (CB2) modulators and uses thereof” (Teon Therapeutics, Inc., priority 2020, dated 2023).
Where two headings read alike, the source gives them in different places.

Columns and labels:
human CB2 receptor [1] = target: T1, human CB2 receptor (Homo sapiens (Human), UniProt P34972); test: CB2 receptor binding assay ([3H]CP-55,940 displacement, HEK-293 membranes); conditions: membranes of HEK-293 cells with human recombinant CB2R, [3H]CP-55,940, read-out: CB2 IC50
T1 sequence (P34972 whole entry): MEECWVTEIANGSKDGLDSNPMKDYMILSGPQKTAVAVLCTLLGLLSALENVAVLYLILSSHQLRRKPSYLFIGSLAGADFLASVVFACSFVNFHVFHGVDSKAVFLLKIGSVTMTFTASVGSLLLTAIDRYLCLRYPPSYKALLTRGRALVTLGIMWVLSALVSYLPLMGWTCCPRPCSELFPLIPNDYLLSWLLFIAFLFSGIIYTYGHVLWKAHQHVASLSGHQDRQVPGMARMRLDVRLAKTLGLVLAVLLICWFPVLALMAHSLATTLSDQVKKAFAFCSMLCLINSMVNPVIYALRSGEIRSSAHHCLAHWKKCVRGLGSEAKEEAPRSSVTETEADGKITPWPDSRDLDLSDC

human CB2 receptor [2] = target: T1, human CB2 receptor; test: CB2 receptor cAMP assay (DiscoverX HitHunter cAMP XS+); format: cell-based
In short: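 CHO-K1 cells expressing human CB2, HitHunter cAMP XS+ chemiluminescence. Agonist mode with EC80 forskolin, inverse agonist with EC20 forskolin, antagonist mode by compound preincubation 30 min then EC80 agonist plus EC80 forskolin; 30 or 60 min at 37 °C or RT, 1% vehicle. IC50 from variable-slope fit.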

human recombinant CB1R = human recombinant CB1R (Homo sapiens (Human), UniProt P21554); test: CB1 receptor binding assay ([3H]CP-55,940 displacement, HEK-293 membranes); conditions: membranes of HEK-293 cells with human recombinant CB1R, [3H]CP-55,940, read-out: CB1 IC50
Sequence of human recombinant CB1R (P21554 whole entry): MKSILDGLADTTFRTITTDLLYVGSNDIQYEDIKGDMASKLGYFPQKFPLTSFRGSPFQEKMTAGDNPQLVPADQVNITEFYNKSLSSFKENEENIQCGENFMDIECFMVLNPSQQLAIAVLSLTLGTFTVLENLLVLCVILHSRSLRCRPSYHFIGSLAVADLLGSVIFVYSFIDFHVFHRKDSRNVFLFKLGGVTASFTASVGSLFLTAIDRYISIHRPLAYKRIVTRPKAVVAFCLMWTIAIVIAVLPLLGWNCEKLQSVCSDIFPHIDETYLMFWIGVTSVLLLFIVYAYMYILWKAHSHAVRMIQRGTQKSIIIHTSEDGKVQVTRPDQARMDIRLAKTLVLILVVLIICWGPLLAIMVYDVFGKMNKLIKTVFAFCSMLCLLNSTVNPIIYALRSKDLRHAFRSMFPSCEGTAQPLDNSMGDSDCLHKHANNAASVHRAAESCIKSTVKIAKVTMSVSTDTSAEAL
In short: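 Displacement of [3H]CP-55,940 was measured on human CB1R- or CB2R-transfected HEK-293 membranes after 120 min at 37 °C, in duplicate, with filtration and scintillation counting. For CB2R, incubation used Tris-HCl 50 mM, MgCl2 5 mM, CaCl2 1 mM, BSA 0.2%, pH 7.4. Ki values were derived from variable-slope IC50 fits using Cheng–Prusoff.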

[3] = CHO-K1, read-out: Max Stimulation %
[4] = cAMP Hunter CHO-K-1 cells expressing human CB2 receptor, read-out: cAMP IC50

SMILES | IC50 (human CB2 receptor [1]) [µM] | IC50 (human CB2 receptor [2]) [µM] | Emax (human CB2 receptor [2]; [3]) [%] | IC50 (human recombinant CB1R) [µM] | IC50 (human CB2 receptor [1]; class symbols) [µM] | IC50 (human recombinant CB1R; class symbols) [µM] | IC50 (human CB2 receptor [2]; [4]) [µM] | Emax (human CB2 receptor [2]; CHO-K1, cAMP Hunter CHO-K-1 cells expressing human CB2 receptor, read-out: Max Stimulation %) [%]
CC1CCC(NC(=O)c2c(O)c3cc(-c4ccc(F)cc4)cnc3n(CCN3CCOCC3)c2=O)CC1 (stereo not shown) [Compound 5, 6-(4-fluorophenyl)-4-hydroxy-N-(4-methylcyclohexyl)-1-(2-morpholinoethyl)-2-oxo-1,2-dihydro-1,8-naphthyridine-3-carboxamide] | 0.0065 | 0.07 | 75 | 3.87 |  |  |  | 
COc1ccc(-c2cnc3c(c2)cc(C(=O)NC24CC(C2)C4)c(=O)n3CCN2CCOCC2)cc1 [Compound 50, N-(bicyclo[1.1.1]pentan-1-yl)-6-(4-methoxyphenyl)-1-(2-morpholinoethyl)-2-oxo-1,2-dihydro-1,8-naphthyridine-3-carboxamide] | 0.0043 | 0.0006 | 80 | 2.78 |  |  |  | 
CC(NC(=O)c1c(O)c2cc(-c3ccc(F)cc3)cnc2n(CCN2CCOCC2)c1=O)c1ccc(F)cc1 (stereo not shown) [Compound 9, 6-(4-fluorophenyl)-N-(1-(4-fluorophenyl)ethyl)-4-hydroxy-1-(2-morpholinoethyl)-2-oxo-1,2-dihydro-1,8-naphthyridine-3-carboxamide] |  | 0.071 | 7 |  | < 0.1 | > 1 |  | 
O=C(NC1CC2(CCC2)C1)c1c(O)c2cc(-c3ccc(F)cc3)cnc2n(CCN2CCOCC2)c1=O [Compound 6, 6-(4-fluorophenyl)-4-hydroxy-1-(2-morpholinoethyl)-2-oxo-N-(spiro[3.3]heptan-2-yl)-1,2-dihydro-1,8-naphthyridine-3-carboxamide] | 0.0061 |  |  | > 10 |  |  | > 1 | 
O=C(NC1CCC(F)(F)CC1)c1c(O)c2cc(-c3ccc(F)cc3)cnc2n(CCN2CCOCC2)c1=O [Compound 7, N-(4,4-difluorocyclohexyl)-6-(4-fluorophenyl)-4-hydroxy-1-(2-morpholinoethyl)-2-oxo-1,2-dihydro-1,8-naphthyridine-3-carboxamide] |  |  |  |  | > 1 | > 1 | > 1 | 
N#Cc1ccc(-c2cnc3c(c2)cc(C(=O)NC24CC(C2)C4)c(=O)n3CCN2CCOCC2)nc1 [Compound 59, N-(bicyclo[1.1.1]pentan-1-yl)-6-(5-cyanopyridin-2-yl)-1-(2-morpholinoethyl)-2-oxo-1,2-dihydro-1,8-naphthyridine-3-carboxamide] | 0.13 |  | 75 | > 10 |  |  | 0.119 | 
CC(NC(=O)c1cc2cc(-c3ccc(OC(F)F)cc3)cnc2n(CCN2CCOCC2)c1=O)c1ccc(F)cc1 (stereo not shown) [Compound 53, 6-(4-(difluoromethoxy)phenyl)-N-(1-(4-fluorophenyl)ethyl)-1-(2-morpholinoethyl)-2-oxo-1,2-dihydro-1,8-naphthyridine-3-carboxamide] |  |  |  |  | < 0.1 | > 1 | 0.002 | 85
N#Cc1ccc(-c2cnc3c(c2)cc(C(=O)NC2(c4ccc(F)cc4)CC2)c(=O)n3CCN2CCOCC2)nc1 [Compound 42, 6-(5-cyanopyridin-2-yl)-N-(1-(4-fluorophenyl)cyclopropyl)-1-(2-morpholinoethyl)-2-oxo-1,2-dihydro-1,8-naphthyridine-3-carboxamide] | 0.023 | 0.014 | 73 | > 10 |  |  |  | 
CC1CCC(NC(=O)c2c(O)c3cc(-c4ccc(OC(F)F)cc4)cnc3n(CCN3CCOCC3)c2=O)CC1 (stereo not shown) [Compound 15, 6-(4-(difluoromethoxy)phenyl)-4-hydroxy-N-(4-methylcyclohexyl)-1-(2-morpholinoethyl)-2-oxo-1,2-dihydro-1,8-naphthyridine-3-carboxamide] | 0.0088 | 0.021 | 75 | > 10 |  |  |  | 
C[C@@H](NC(=O)c1cc2cc(C3COC3)cnc2n(Cc2ccc(F)cc2)c1=O)c1ccc(F)cc1 [Compound 103, (R)-1-(4-fluorobenzyl)-N-(1-(4-fluorophenyl)ethyl)-6-(oxetan-3-yl)-2-oxo-1,2-dihydro-1,8-naphthyridine-3-carboxamide] | 0.003 | 0.009 | 91 | 2.91 |  |  |  | 
CC1CCC(NC(=O)c2cc3cc(-c4ccccn4)cnc3n(CCN3CCOCC3)c2=O)CC1 (stereo not shown) [Compound 62, N-(4-methylcyclohexyl)-1-(2-morpholinoethyl)-2-oxo-6-(pyridin-2-yl)-1,2-dihydro-1,8-naphthyridine-3-carboxamide] |  | 0.013 | 33 |  | < 0.1 | > 1 |  | 
C[C@@H](NC(=O)c1cc2cc(C3CC3)cnc2n(Cc2ccc(F)cc2)c1=O)c1ccc(C#N)cc1 [Compound 95, (R)—N-(1-(4-cyanophenyl)ethyl)-6-cyclopropyl-1-(4-fluorobenzyl)-2-oxo-1,2-dihydro-1,8-naphthyridine-3-carboxamide] | 0.0032 | 0.002 | 60 | 0.895 |  |  |  | 
